Row | melting point [°C] | SMILES
1 | 239 to 242 | CNc1cncc(C(=O)O)c1
2 | 203 | CCCC1=C(C#N)C(c2ccccc2OC)c2c[nH]nc2N1 (stereo not drawn)
3 | 159 to 160 | COCc1c(C(=O)c2ccccc2)ncc2[nH]c3ccc(Oc4nccc5ccccc45)cc3c12
4 | 153 to 155 | O=C(Nc1ccc(-n2nc(C(F)(F)F)cc2-c2cccs2)cc1)c1ccncc1F
5 | 310 | N#Cc1c(Cl)c2cccnc2[nH]c1=O
6 | 195 to 196 | O=C(O)c1cccn1-c1ccc(F)cc1
7 | 117 | CN(C)c1ccc(C(O)C#Cc2ccncc2)cc1 (stereo not drawn)
8 | 174 to 178 | CC(C(=O)O)c1ccc(-c2nc3ccccc3o2)cc1 (stereo not drawn)
9 | 152 | OCCSCc1ccc(-c2ccc(CSCCO)cc2)cc1
10 | 122 to 126 | CCOC(=O)NC[C@H]1CN(c2ccc3c(c2)CCCc2cn[nH]c2-3)C(=O)O1
11 | > 250 | COc1cc(-c2nc(N3CCOCC3)c3c(C)c(C#N)sc3n2)cc(OC)c1OC
12 | 72 to 73 | C=CCn1c(=O)c(OC)nn(-c2cccc(NC(C)=O)c2)c1=O
13 | 121 to 122 | O=C1N(C(c2ccccc2)c2ccccc2)c2c(F)cccc2C1(O)c1cc2c(cc1O)OCC2 (stereo not drawn)
14 | 179 to 180 | Cc1ccc(N)cc1Nc1cc(-c2cncnc2)ccn1
15 | 110 to 111 | O=C(NCCO)c1cc(-c2cccc3cc(Cc4cccc(C(F)(F)F)c4)sc23)ncc1F
16 | 77 to 80 | CC(S(=O)(=O)c1ccc(OC(F)(F)F)cc1)S(=O)(=O)C(F)(F)F (stereo not drawn)
17 | 184 to 186 | CC(C)(C)C(NC(=O)c1ccc(Cl)cc1)NC(=NC#N)Nc1cccc(C(F)(F)F)c1 (stereo not drawn)
18 | > 170 | Nc1nc2c(sc(=O)n2C2CC(O)C(CO)O2)c(=O)[nH]1 (stereo not drawn)
19 | 162 to 164 | Cc1nn(-c2cc3nc(S(=O)Cc4ccccc4)sc3cc2F)c(=O)n1C (stereo not drawn)
20 | 144 to 145 | COc1cc(C(=O)[C@H](C)NC(=O)C(F)(F)F)c(OC)cc1Br
21 | 120 to 121 | COC(=O)CCC(=O)c1ccc(-c2ccc(Cl)c(Cl)c2)cc1
22 | 201 to 204 | O=C(O)C1CC(=O)N(c2ccc(O)cc2)C1 (stereo not drawn)
23 | 79.5 to 80.5 | COC(=O)C1=Cc2cc(Br)cnc2N(CC(C)C)CCC1
24 | 220 to 223 | O=C1C(Cl)=C(Nc2ccc(S(=O)(=O)Nc3ccccc3)cc2)C(=O)c2ccccc21
25 | 180 | CC(C)n1cc(-c2nc(C#N)c(N)nc2-c2ccc(F)c(F)c2)ccc1=O
26 | 148 | CC#CCOc1cc(Nc2cccc(F)c2F)ncn1

Row | melting point [°C] | SMILES
27 | 47 to 49 | Cc1cc(C)cc(OCC(O)CO)c1 (stereo not drawn)
28 | 148 to 149 | COc1ccc(S(=O)(=O)Nc2ccccc2NC(=O)c2ccc(OCc3ccccc3)cc2)cc1
29 | 97 | CCOC(=O)c1cn2c(n1)CN(C(C)=O)CC2
30 | 80 to 82 | Cc1ccc(C)c(C(=O)NC(C)(C)C)c1
31 | 167 to 168 | COc1ccc(C2Sc3cc(Oc4ccccc4)ccc3N(CCN(C)C)C(=O)C2OC(C)=O)cc1F (stereo not drawn)
32 | 92 to 93 | Cc1ccc(Oc2cc(-c3ccc(Br)cc3)oc2-c2ccc(Br)cc2)cc1
33 | 123 to 124 | CC(C)(C)c1cc(I)c2c(c1)CNC1(CCSCC1)O2
34 | 138 to 140 | CCOCCn1c(C2CCN(CCc3ccc(C(C)(C)C)cc3)CC2)nc2ccccc21
35 | 224 to 226 | Nc1nc2ccccc2n1-c1cccc(-c2nccs2)c1
36 | 96 to 97 | COc1cc(OC)c([C@@H]2CCN(C)C[C@H]2O)c(OC)c1 (relative stereo)
37 | 56 to 58 | CC(=O)OCC(C)(C)C(Cl)CC(Cl)(Cl)Cl (stereo not drawn)
38 | 181 | CC(C)c1cccc(S(=O)(=O)n2c(Cc3ccc(C(=O)O)cc3)cc3cc(Cl)ccc32)c1
39 | 93 to 95 | CC1CC=C(c2nnn(C)n2)CN1C (stereo not drawn)
40 | 211 to 215 | CCSC1=CCC2C3CCC4=CC(=O)C=CC4(C)C3(F)C(OC(C)=O)CC12C (stereo not drawn)
41 | 155 to 156 | COc1cc2ccccc2cc1NC(=O)Nc1cccc2ccccc12
42 | 240 to 242 | COC(=O)c1cccc(CNC(=O)C2CC2)c1C(=O)OC
43 | 255 to 257 | Cc1ccc(S(=O)(=O)N2CCC(c3cccc4c3CCCC(C(=O)O)=C4)CC2)cc1
44 | 75.3 to 77.4 | CC(Br)C(=O)NOCc1ccccc1 (stereo not drawn)
45 | 217 to 218 | Cc1nc(N2CCCC(Cc3ccc(C(F)(F)F)cc3)C2=O)sc1C(=O)NCc1ccccc1 (stereo not drawn)
46 | 178 to 179 | OC1CCc2cccc(Nc3cc(-c4ccc(C(F)(F)F)cc4)ncn3)c2C1 (stereo not drawn)
47 | 126 to 128 | CCn1c(=O)c(-c2c(Cl)cccc2Cl)cc2cnc(NCCCN3CCN(C)CC3)nc21
48 | 150 to 151 | CC(=O)O[C@@H]1C(=O)N[C@@H]1c1ccccc1 (relative stereo)
49 | 118 to 120 | COc1cccc2c1-c1c(OC(C)C)cccc1C2=O
50 | 146 to 147 | O=C1N[C@H](Cc2ccc(C(F)(F)F)cc2)[C@H](c2ccccc2F)O1 (racemic)
51 | 73 to 74.5 | COC1=CC(OC)OC(C)C1=O (stereo not drawn)
52 | 65 | COC[C@H]1CN(c2ccc(CCC[C@@H](C)O)cc2)C(=O)O1

Row | melting point [°C] | SMILES
53 | 85 to 88 | COc1ccc(C(OC(C)=O)C(COC(C)=O)[N+](=O)[O-])cc1OC (stereo not drawn)
54 | 92 to 96 | O=C(CCN1CCN(c2ccc3ccccc3n2)CC1)c1csc2ccccc12
55 | 192 to 193 | C=CCOc1cc(C(=O)O)cc([N+](=O)[O-])c1C(=O)c1ccccc1
56 | 133 to 135 | CON(C(=O)c1cn(C)nc1C(F)F)C(C)C1CC1c1ccc(Cl)cc1Cl (stereo not drawn)
57 | 60 to 61 | COC(=O)C(C)=Cc1cc(N=C=S)ccc1Cl
58 | 167 to 168 | CCCCCc1nc2c(N)nc3c(c2n1CCCCNS(C)(=O)=O)CCCC3
59 | 90 to 91 | CN1CCc2cc[nH]c2C(c2ccccc2)C1 (stereo not drawn)
60 | > 250 | c1ccc2cc(-c3ccc(-c4nc(-c5ccc(-c6ccc7ccccc7c6)cc5)n(-c5cccc6ccccc56)n4)cc3)ccc2c1
61 | 62 to 63 | COC(=O)c1cccc(N)c1N
62 | 197 to 199 | CN1CCN(c2cc3c(cc2F)c(=O)n(O)c(=O)n3-c2ccc(F)c(Cl)c2)CC1
63 | 78 to 81 | CCCN(c1nc(-c2ccc(Cl)cc2Cl)c(C)s1)C(c1ccccc1)C1CC1 (stereo not drawn)
64 | 184 to 185 | COc1ccccc1N1CCN(C(=O)Nc2nc(C)c(C)nc2OC)CC1
65 | 81 to 83 | CCOC(=O)CC(C(=O)c1ccccc1)C(=O)c1ccccc1
66 | 57 | CC(C)OC(=O)c1cc(-c2nn(C)c(C(F)(F)F)c2C(F)F)c(F)cc1Cl
67 | 48 to 50 | CCOC(=O)CC(=O)c1ccc([N+](=O)[O-])c(C)c1
68 | 114 to 116 | CCOC(=O)CCc1ccc(CCN2CCN(S(=O)(=O)c3ccccc3)CC2)cc1
69 | 55 to 56 | CCOC(=O)c1c(C)nn(C)c1SCc1ccccc1
70 | 165 | O=C(CCl)c1ccc(OCCOc2ccc(C(=O)CCl)cc2)cc1
71 | 79 to 84 | C#CC(O)(CO)C(O)c1ncnc2c1ncn2Cc1ccc2c(c1)Nc1nccnc1S2 (stereo not drawn)
72 | 138 to 139 | COc1ccc(-n2nc(C(=O)c3ccccc3)cc2-c2ccc(C)cc2)cc1
73 | 261 to 263 | CN(C)S(=O)(=O)c1ccc(COc2cccc3c2CN(C2CCC(=O)NC2=O)C3=O)cc1 (stereo not drawn)
74 | 123 to 124 | CC(C)(C)COc1c(-c2ccc(S(N)(=O)=O)cc2)cnn(CC(F)(F)F)c1=O
75 | 114 | CCC(=N)Nc1ccccc1N1CCOCC1
76 | 149 to 152 | Fc1ccc(-c2ncn(C3CCCCO3)c2-c2ccc(F)cc2)cc1 (stereo not drawn)
77 | 254 to 255 | CCN(CC)CCNc1ccc(C)c2sc3ccc(O)cc3c(=O)c12
78 | 123 to 126 | N#CC=CC=CC(=O)C(F)(F)F

Row | melting point [°C] | SMILES
79 | 91 to 94 | CC(NC(=O)c1cccc(C2(C)C(=O)Nc3cc(Cl)cc(Cl)c3C2=O)c1)c1ccccc1 (stereo not drawn)
80 | 107 to 108 | CCOC(=O)C(=CNC1CC1)C(=O)c1c(F)cc(F)c(F)c1F
81 | 80 to 81.5 | ClC(=NNc1ccccc1)c1cccc(Cl)c1
82 | 95 | O=c1oc(=O)n(Cc2ccccc2)c2ccc(F)cc12
83 | 159 to 160 | O=c1[nH]c(=O)n(C2CC(OCc3cccc4ccccc34)C(CO)O2)cc1F (stereo not drawn)
84 | 252 | CCOC(=O)N1CCc2nc3ccccc3c(O)c2CC1
85 | 214 | CNC(=O)Nc1ccc(Cl)cc1Cl
86 | 102 to 103 | CCN(CC)C(=O)c1cc(-c2ccccc2)c2ccccc2c1OC
87 | 77 to 80 | CCC12CCC3=C(CCc4cc(OC)ccc43)C1=CCC2=O (stereo not drawn)
88 | 81 | CC(=O)OC1CC(n2cc(C=CBr)c(=O)[nH]c2=O)OC1C(O)F (stereo not drawn)
89 | 90 to 91 | CCCC(CCC)n1nnc2c(Cl)nc(C)cc21
90 | 124 to 127 | COSN=C1C(=O)N(C)C(=O)N1c1ccccc1F
91 | 178 | C=C(C)C(=O)NC1=CC(O)(C(C)=O)C(C(=O)O)C=C1 (stereo not drawn)
92 | 175 to 178 | Cc1cccc(C)c1C(=O)Oc1cc([N+](=O)[O-])cc([N+](=O)[O-])c1OC(=O)c1c(C)cccc1C
93 | 62 to 63 | O=C(CCCCl)Nc1cccc2cccnc12
94 | 184 to 186 | Nc1ccnc2c(F)cccc12
95 | 165 | CCCCOc1ccc(NC(=O)N(C)c2cccc(-c3ccc(CCC(=O)O)cc3)c2)cc1
96 | 67 to 69 | CN(C)CCNC(=O)c1ccc(Br)cc1
97 | 97 to 98 | C=CCOc1c(OC)cc([C@H]2CC[C@H](c3cc(OC)c(OC)c(OC)c3)O2)cc1S(C)(=O)=O (relative stereo)
98 | 67 to 68 | CCc1cc(Cl)cnc1N
99 | 120 to 121 | CON=C(c1cc(C)on1)c1ccccc1COc1ncc(Cl)cc1C(F)(F)F
100 | 70 | CN(C)CCCOc1ccc(-c2nnc(CSCCOc3ccccc3)o2)cc1
101 | 99 to 100 | FC(F)(F)c1ccnc(N2CCN(Cc3n[nH]c4ccccc34)CC2)c1

Row | SMILES | melting point [°C]
102 | CN1CCC(O)(c2cccc(Cl)c2F)C1 (single isomer, unassigned; (+)) | 123 to 125
103 | CSC(=CC(=O)c1ccccc1Br)N1CCN2CCC1CC2 | 107 to 108

Source: a melting point compilation (Tetko et al.; mined from patent text by program, amines drawn as free bases though some values may be those of a salt)
